Entries after “also recorded” stand apart in the source; their conditions may differ.
Legend:
[1] = system: human body-derived renal cells ACHN; assay: nephrotoxicity, renal cell viability (cell titer glo); assay type: cell-based
Procedure: First, ACHN renal cells were incubated with 2×10^4 cells/well for 24 hours, and the medium was changed to a medium in which PMB or PA108 was mixed in all wells. After 0, 24, 48, 72, and 96 hours of the treatment with PMB or PA108, cell viability was measured as ratios of the amounts of ATP at each time to 0 hour through cell titer glo to evaluate cytotoxicity.

[2] = system: R357 strains; assay: mouse sepsis model caused by R357 infection, survival rate; assay type: in vivo; conditions: PMB 100 μg/kg + PA108 60 μg/kg intraperitoneally
Procedure: Specifically, 5×10^7 of R357 strains were intraperitoneally injected into 6 week old C57BL/6 mouses to prepare a sepsis mouse model caused by R357 infection, and PMB at a dose of 100 μg/kg and PA108 at a dose of 60 μg/kg were intraperitoneally injected alone or in combination to measure the survival rate of the mouse.

[3] = system: Acinetobacter baumannii strains; assay: membrane permeability (PI fluorescence); assay type: cell-based; conditions: PMB 16 μg/ml + PA108 5 μM; 30 minutes
Procedure: Specifically, for sample preparation, a colony culture grown for 16 hours was washed and resuspended in 0.01 M PBS at pH 7.4. Absorbance at 600 nm in a bacteria suspension was standardized to 0.5 in the same buffer solution, and a pigment PI9 (cat. P1304MP, Thermo Fisher Scientific, Waltham, Massachusetts, USA) was added at a final concentration of 1.67 μM. After incubation at 37° C. for 30 minutes, 198 μl of fluorescently labeled bacteria cells were added to a 96-well plate, and 16 μg/ml of PMB and 2 μl of 5 μM PA108 were added. After incubation for 30 minutes again, fluorescence was measured in a fluorescence measurement wavelength range of excitation of 535 nm and emission of 615 nm by a multifunctional microplate reader to measure membrane permeability.

[4] = system: Acinetobacter baumannii strains; assay: cytoplasmic membrane potential (DiSC3(5) fluorescence); assay type: cell-based; conditions: PMB and PA108 in combination
Procedure: The cell membrane potential was resuspended in 5 mM HEPES (pH 7.0, +5 mM of glucose), DiSC3(5) (3,3′-Dipropylthiadicarbocyanine Iodide) (50 μM, Cat. D306, Invitrogen, Carlsbad, California) which is a pigment sensitive to potential was added, incubation was performed for 30 minutes, and then fluorescence was measured by a multifunctional microplate reader to measure membrane potential.

[5] = system: A. baumannii colistin R357; assay: checkerboard assay, MIC and FICI; conditions: for MIC Alone: 18 hours
Procedure: First, in a LB agar plate, 3-4 colonies were inoculated into a 4-5 ml of a LB broth and incubated overnight at 37° C. and 220 rpm for 16 hours. Thereafter, 5 ml of a 1/10000 dilution of the culture medium was made and incubated to OD=0.08-0.1 at 37° C. and 220 rpm in a 15 ml round culture tube.
(§1) It was determined that when the FICI value was 0.5 or less, the effect was synergistic, when the value was 0.5 to 4.0, the effect was indifferent, and when the value was 4 or more, the effect was antagonistic.

[6] = system: K. pneumoniae SCH530; assay: checkerboard assay, MIC and FICI; conditions: for MIC Alone: 18 hours
Procedure: as §1
(§2) First, in each LB agar plate in which bacteria (Klebsiella pneumonia SCH530, SCH740, SCH777, Pseudomonas aeruginosa SMC-U9, SMC-U10, SMC-U11) were grown, 3 to 4 colonies were inoculated into 4 to 5 ml of a LB broth and incubated overnight at 220 rpm at 37° C. for 16 hours. The next day, 5 ml of a culture medium diluted to 1/10000 was incubated to OD=0.08-0.1 in a 15 ml round culture tube at 220 rpm at a temperature of 37° C., and was diluted to 1/20 and dispensed at 196 ul in a 96-well plate. PA108 and PMB were dispensed at concentrations of 0 to 80 μM and 0 to 128 μg/Ml, respectively at 2 ul each and mixed in each well, and incubated at 37° C. for 18 hours to measure the OD value using a multifunctional microplate reader.

[7] = system: K. pneumoniae SCH740; assay: checkerboard assay, MIC and FICI; conditions: for MIC Alone: 18 hours
Procedure: as §1, §2

[8] = system: K. pneumoniae SCH777; assay: checkerboard assay, MIC and FICI; conditions: for MIC Alone: 18 hours
Procedure: as §1, §2

[9] = system: P. aeruginosa SMC-U9; assay: checkerboard assay, MIC and FICI; conditions: for MIC Alone: 18 hours
Procedure: as §1, §2

[10] = system: P. aeruginosa SMC-U10; assay: checkerboard assay, MIC and FICI; conditions: for MIC Alone: 18 hours
Procedure: as §1, §2

[11] = system: P. aeruginosa SMC-U11; assay: checkerboard assay, MIC and FICI; conditions: for MIC Alone: 18 hours
Procedure: as §1, §2

[12] = system: R357 strains; assay: bacterial viability test (colony forming unit)
Procedure: First, in a LB agar plate, a single colony was inoculated into a 3 ml of a LB broth and incubated overnight under the conditions of 37° C. and 220 rpm for 16 hours. Thereafter, 1% of the culture medium was diluted in a 250 ml Erlenmeyer flask and then incubated to OD=0.5.

[13] = system: Acinetobacter baumannii strains; assay: transcriptome analysis (RNA sequencing, DEG, gene ontology); conditions: 1 hour
Procedure: First, in a LB agar plate, a single colony was inoculated into a 3 ml of a LB broth and incubated overnight under the conditions of 37° C. and 220 rpm for 16 hours. Thereafter, 1% of the culture medium was diluted in a 250 mL Erlenmeyer flask and then incubated to OD=0.5. The culture medium was dispensed at 5 ml each into three 15 ml round culture tubes, treated with PMB at a concentration of 16 μg/ml, PA108 at a concentration of 5 μm, and PMB at a concentration of 16 μg/ml and PA108 at a concentration of 5 μm, respectively, and incubated at 37° C. and 220 rpm for 1 hour. Thereafter, bacteria were washed three times with PBS, centrifuged at 4° C. and 8,000×g for 10 minutes, and stored at −80° C.
The library for performing RNA sequencing was prepared by extracting total RNA with a TruSeq Stranded Total RNA sample preparation kit including Ribo-Zero H/M/R, and synthesizing 150 bp-sized cDNA. The quality of the synthesized cDNA library was evaluated by Agilent 2100 BioAnalyzer (Agilent, CA, USA), and after amplifying the cluster of a denatured template, paired-end sequencing which sequences both ends of a DNA fragment using Illumina Novaseq 6000 (Illumina, CA, USA) was performed. For transcriptomic data analysis, the read value was filtered, and the filtered read value was mapped to a reference genome using an aligner STAR v.2.4.0b. Thereafter, in order to measure a gene expression amount, gene expression was quantified using a KAPA library quantification kit (Kapa Biosystems, MA, USA) according to the library quantification protocol of the manufacturer.
In order to identify a differential expression gene (DEG), a gene expression level was measured with Cufflinks v2.1.1 using gene annotation database, and gene expression level count data was produced using HTSeq-count v0.6.1p1. Form the produced data, a TCC R package was used to identify a gene having a q value of less than 0.05 as a differential expression gene.
For the genes identified as the differential expression gene (DEG), gene ontology (GO) analysis in which genes were classified according to three categories of biological process, molecular function, and cellular component, and information about the function of genes is provided was performed.

[14] = system: Acinetobacter baumannii strains (R357); assay: bacterial morphological change (fluorescence microscope, scanning electron microscope); conditions: 9 hours
Procedure: First, in a LB agar plate, a single colony was inoculated into 3 ml of a LB broth and incubated overnight at 37° C. and 220 rpm for 16 hours. Thereafter, 1% of the culture medium was diluted in a 250 ml of Erlenmeyer flask and incubated to OD=0.5, treated with PMB and PA108 at concentrations of 16 μg/ml and 5 μM, respectively, and incubated for 9 hours. The cells were centrifuged at 4° C. for 10 minutes at 8,000×g, washed three times, and resuspended in PBS. 3 ml of the cell suspension was fixed and then observed with a scanning electron microscope. A LIVE/DEAD BacLight bacterial viability kit (Cat #. L7007, Invitrogen, Waltham, Massachusetts, USA) was used to add SYTO9 (67 mM, 3 μL) which bound to DNA and RNA of living cells to emit green fluorescence and Propidium iodide (PI) (1.67 mM, 3 μL) which bound to DNA and RNA of dead cells to emit red fluorescence to add each sample at a final volume of 3 ml, and the samples were incubated in a dark room at room temperature for 15 hours and observed with a fluorescence microscope.

[15] = A. baumannii colistin R357, PA108 + polymyxin B
[16] = in combination with polymyxin B
[17] = PMB 16 μg/ml + PA108 5 μM, gene ontology analysis

In the case of Cc1cc([N+](=O)[O-])cc(-c2ccc(Cl)cc2)c1O [PA108], the “nephrotoxicity at working concentration” value ([1]; 5 μM) is reported as “nephrotoxicity was not shown at all”, the renal cell viability ([1]; concentration higher than 5 μM) is reported as at least 80% and the “survival time, simultaneous treatment” value ([2]; C57BL/6 mouse, R357 i.p.) is reported as at least 168 h. The “R357 strains in organs at autopsy, simultaneous treatment” value [2] was “R357 strains were not detected in organs”, the “pathological symptoms, simultaneous treatment” value ([2]; until 168 hours) was “without showing any pathological symptoms” and the overall membrane permeability [3] was “did not affect the overall membrane permeability”. The “bacterial cytoplasmic membrane potential” value [4] was “changed the bacterial cytoplasmic membrane potential”, the FIC ([5]; A. baumannii colistin R357) was 0.03125 and the “MIC Alone” value ([5]; A. baumannii colistin R357) was 160 µM. The FICI [5, 15] was 0.06225, the Interpretation [5, 15] was “synergistic effect; also recorded: Synergy” and the “MIC Combi” value ([5]; A. baumannii colistin R357, in combination with PB) was 5 µM. For the same molecule, the FIC [6] was 0.03125, the “MIC Alone” value [6] was 160 µM and the Interpretation ([6]; PA108 + polymyxin B) was “Synergy”. The “MIC Combi” value [6, 16] was 5 µM, the FIC [7] was 0.03125 and the “MIC Alone” value [7] was 160 µM. For the same molecule, the Interpretation ([7]; PA108 + polymyxin B) was “Synergy”, the “MIC Combi” value [7, 16] was 5 µM and the FIC [8] was 0.03125. The “MIC Alone” value [8] was 160 µM, the Interpretation ([8]; PA108 + polymyxin B) was “Synergy” and the “MIC Combi” value [8, 16] was 5 µM. For the same molecule, the FIC [9] was 0.0625, the “MIC Alone” value [9] was 160 µM and the Interpretation ([9]; PA108 + polymyxin B) was “Synergy”. The “MIC Combi” value [9, 16] was 10 µM, the FIC [10] was 0.0625 and the “MIC Alone” value [10] was 160 µM. The Interpretation ([10]; PA108 + polymyxin B) was “Synergy”, the “MIC Combi” value [10, 16] was 10 µM and the FIC [11] was 0.0625. The “MIC Alone” value [11] was 160 µM, the Interpretation ([11]; PA108 + polymyxin B) was “Synergy” and the “MIC Combi” value [11, 16] was 10 µM. For the same molecule, the “effect of killing (CFU), PA108 single treatment” value ([12]; PA108 5 μM) was “did not show the effect of killing”, the “cell death (CFU), simultaneous treatment” value ([12]; PMB 16 μg/mL + PA108 5 μM) was “cell death was derived” and the bacterial killing effect ([12]; PMB 16 μg/mL + PA108 5 μM, final) was 100%. For the same molecule, the “gene change compared with control group, PA108 single treatment” value ([13]; PA108 5 μM) was “significant gene change was observed”, the “gene change compared with control group, simultaneous treatment” value ([13]; PMB 16 μg/ml + PA108 5 μM) was “significant gene change was observed” and the “expression of genes involved in transport of substances through a cell membrane, ATPase-coupled sulfate transmembrane transporter activity” value [13, 17] was “significantly increased”. The “expression of genes involved in zinc ion binding, identical protein binding, ferric ion binding and peroxidase activity” value [13, 17] was “significantly decreased”, the “cell death by LIVE/DEAD fluorescence, PA108 single treatment” value ([14]; PA108 5 μM) was “the cells did not die” and the “cell morphology by scanning electron microscope, PA108 single treatment” value ([14]; PA108 5 μM) was “intact form in which the surface of cells was not damaged”. For the same molecule, the “cell death by LIVE/DEAD fluorescence, simultaneous treatment” value ([14]; PMB 16 μg/ml + PA108 5 μM) was “cell death was derived” and the “cell morphology by scanning electron microscope, simultaneous treatment” value ([14]; PMB 16 μg/ml + PA108 5 μM) was “cells shrunk and an intracellular substance was leaked”.

With polymyxin B [PMB, reference compound] the “concentration from which viability of renal cells decreased” value ([1]; up to 96 hours) was at least 50 µg/mL, the FIC ([5]; A. baumannii colistin R357) was 0.031 and the “MIC Alone” value ([5]; A. baumannii colistin R357) was 54 µg/mL. For the same molecule, the “MIC Combi” value ([5]; A. baumannii colistin R357, in combination with PA108) was 2 µg/mL, the “minimal inhibitory concentration (MIC)” value ([5]; R357 strains, polymyxin alone) was 64 µg/mL and the FIC [6] was 0.0623. For the same molecule, the “MIC Alone” value [6] was 8 µg/mL, the “MIC Combi” value ([6]; in combination with PA108) was 0.5 µg/mL and the FIC [7] was 0.00781. For the same molecule, the “MIC Alone” value [7] was 128 µg/mL, the “MIC Combi” value ([7]; in combination with PA108) was 1 µg/mL and the FIC [8] was 0.00391. The “MIC Alone” value [8] was 128 µg/mL, the “MIC Combi” value ([8]; in combination with PA108) was 0.5 µg/mL and the FIC [9] was 0.25. For the same molecule, the “MIC Alone” value [9] was 16 µg/mL, the “MIC Combi” value ([9]; in combination with PA108) was 4 µg/mL and the FIC [10] was 0.125. The “MIC Alone” value [10] was 16 µg/mL, the “MIC Combi” value ([10]; in combination with PA108) was 2 µg/mL and the FIC [11] was 0.0625. The “MIC Alone” value [11] was 32 µg/mL, the “MIC Combi” value ([11]; in combination with PA108) was 2 µg/mL and the “effect of killing (CFU), PMB single treatment” value ([12]; PMB 16 μg/mL) was “did not show the effect of killing”. For the same molecule, the “gene change compared with control group, PMB single treatment” value ([13]; PMB 16 μg/ml) was “significant gene change was observed”, the “cell death by LIVE/DEAD fluorescence, PMB single treatment” value ([14]; PMB 16 μg/ml) was “the cells did not die” and the “cell morphology by scanning electron microscope, PMB single treatment” value ([14]; PMB 16 μg/ml) was “intact form in which the surface of cells was not damaged”.
